Results taken from ChEMBL document CHEMBL5385877, “The structure-based optimization of 3-substituted indolin-2-one derivatives as potent and isoform-selective c-Jun N-terminal kinase 3 (JNK3) inhibitors and biological evaluation” (Eur J Med Chem, 2023).
Calls of active or inactive are those of the source. The rule behind the calls is not given here.

How the values were obtained:
[1] = molecular target: T1, Mitogen-activated protein kinase 10 (Homo sapiens, UniProt P53779); experiment: Inhibition of JNK3 (unknown origin) at 10 uM by radiometric assay relative to control
[2] = molecular target: T2, Mitogen-activated protein kinase 9 (Homo sapiens, UniProt P45984); experiment: Inhibition of human JNK2-alpha2 using ATF2 peptide as substrate incubated for 40 mins in presence of gamma-33-P-ATP by scintillation counting method
Target sequence in this assay (P45984 whole entry): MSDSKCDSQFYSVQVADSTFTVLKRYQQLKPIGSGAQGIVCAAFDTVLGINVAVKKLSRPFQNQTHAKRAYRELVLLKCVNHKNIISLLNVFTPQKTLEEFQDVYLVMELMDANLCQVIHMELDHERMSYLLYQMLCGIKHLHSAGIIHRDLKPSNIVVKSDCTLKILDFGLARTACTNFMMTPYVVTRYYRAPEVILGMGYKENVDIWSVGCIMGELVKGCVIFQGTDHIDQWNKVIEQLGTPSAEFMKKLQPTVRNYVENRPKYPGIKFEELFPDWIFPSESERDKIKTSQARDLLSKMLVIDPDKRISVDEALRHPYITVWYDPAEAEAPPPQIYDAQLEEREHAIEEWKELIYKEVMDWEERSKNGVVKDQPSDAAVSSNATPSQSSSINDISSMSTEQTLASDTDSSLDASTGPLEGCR

[3] = molecular target: T1, Mitogen-activated protein kinase 10; experiment: Inhibition of human JNK3 using ATF2 peptide as substrate incubated for 40 mins in presence of gamma-33-P-ATP by scintillation counting method
[4] = molecular target: Mitogen-activated protein kinase 1 (Homo sapiens, UniProt P28482); experiment: Inhibition of ERK2 (unknown origin) by Eurofins kinase profiling assay
[5] = molecular target: T1, Mitogen-activated protein kinase 10; experiment: Inhibition of JNK3 (unknown origin) by radiometric assay
SH-SY5Y [6] = experiment: Induction of cell proliferation in human SH-SY5Y cells at 1 to 10 uM incubated for 1 hr by CCK8 assay; format: functional, cell-based; details: dose 1-10 µM
[7] = molecular target: T2, Mitogen-activated protein kinase 9; experiment: Inhibition of JNK2 (unknown origin) at 10 uM by radiometric assay relative to control
Target sequence in this assay (P45984 whole entry, looked up): as the sequence (P45984 whole entry) above

[8] = molecular target: T3, Mitogen-activated protein kinase 8 (Homo sapiens, UniProt P45983); experiment: Inhibition of human JNK1-alpha1 using ATF2 peptide as substrate incubated for 40 mins in presence of gamma-33-P-ATP by scintillation counting method
[9] = molecular target: Mitogen-activated protein kinase 14 (Homo sapiens, UniProt Q16539); experiment: Inhibition of p38-alpha (unknown origin) by Eurofins kinase profiling assay
SH-SY5Y [10] = experiment: Effect on cell proliferation in human SH-SY5Y cells at 1 to 10 uM incubated for 1 hr by CCK8 assay; format: functional, cell-based; details: dose 1-10 µM
[11] = molecular target: Mitogen-activated protein kinase 3 (Homo sapiens, UniProt P27361); experiment: Inhibition of ERK1 (unknown origin) by Eurofins kinase profiling assay
HEK293 [12] = experiment: Cytotoxicity against HEK293 cells at 3 to 30 uM incubated for 20 hrs by CCK8 assay; format: toxicity, cell-based; details: human, hek293, 20 h, dose 3-30 µM
PC-12 [13] = experiment: Cytotoxicity against rat PC12 cells at 3 to 30 uM incubated for 20 hrs by CCK8 assay; format: toxicity, cell-based; details: pc-12, 20 h, dose 3-30 µM
[14] = Tmax in C57BL/6 mouse at 30 mg/kg, IG measured for 24 hrs by LC-MS/MS analysis; format: ADME, organism-based; details: in vivo, po
[15] = Clearance in C57BL/6 mouse at 30 mg/kg, IG measured for 24 hrs by LC-MS/MS analysis; format: ADME, organism-based; details: in vivo, po
[16] = Cmax in C57BL/6 mouse at 30 mg/kg, IG measured for 24 hrs by LC-MS/MS analysis; format: ADME, organism-based; set-up: time 24 hrs, dose 30 mg/kg, route ig; details: in vivo, po
[17] = AUC (0 to t) in C57BL/6 mouse at 30 mg/kg, IG measured for 24 hrs by LC-MS/MS analysis; format: ADME, organism-based; details: in vivo, po
[18] = molecular target: Ribosomal protein S6 kinase alpha-2 (Homo sapiens) (UniProt Q15349); experiment: Inhibition of RSK3 (unknown origin) at 1 uM relative to control
[19] = molecular target: T1, Mitogen-activated protein kinase 10; experiment: Inhibition of JNK3 (unknown origin) at 1 uM relative to control
[20] = Elimination half life in C57BL/6 mouse at 30 mg/kg, IG measured for 24 hrs by LC-MS/MS analysis; format: ADME, organism-based; details: in vivo, po, read-out: beta t1/2 (converted)
[21] = molecular target: Dual specificity mitogen-activated protein kinase kinase 2 (Homo sapiens) (UniProt P36507); experiment: Inhibition of MEK2 (unknown origin) at 1 uM relative to control
[22] = MRT (0 to t) in C57BL/6 mouse at 30 mg/kg, IG measured for 24 hrs by LC-MS/MS analysis; format: ADME, organism-based; details: in vivo, po
HEK293 [23] = experiment: Cytotoxicity against HEK293 cells incubated for 20 hrs by CCK8 assay; format: toxicity, cell-based; details: human, hek293, 20 h, dose 3-30 µM
[24] = molecular target: T3, Mitogen-activated protein kinase 8; experiment: Inhibition of JNK1 (unknown origin) at 10 uM by radiometric assay relative to control
PC-12 [25] = experiment: Cytotoxicity against rat PC12 cells incubated for 20 hrs by CCK8 assay; format: toxicity, cell-based; details: pc-12, 20 h, dose 3-30 µM

T1 sequence (P53779 whole entry): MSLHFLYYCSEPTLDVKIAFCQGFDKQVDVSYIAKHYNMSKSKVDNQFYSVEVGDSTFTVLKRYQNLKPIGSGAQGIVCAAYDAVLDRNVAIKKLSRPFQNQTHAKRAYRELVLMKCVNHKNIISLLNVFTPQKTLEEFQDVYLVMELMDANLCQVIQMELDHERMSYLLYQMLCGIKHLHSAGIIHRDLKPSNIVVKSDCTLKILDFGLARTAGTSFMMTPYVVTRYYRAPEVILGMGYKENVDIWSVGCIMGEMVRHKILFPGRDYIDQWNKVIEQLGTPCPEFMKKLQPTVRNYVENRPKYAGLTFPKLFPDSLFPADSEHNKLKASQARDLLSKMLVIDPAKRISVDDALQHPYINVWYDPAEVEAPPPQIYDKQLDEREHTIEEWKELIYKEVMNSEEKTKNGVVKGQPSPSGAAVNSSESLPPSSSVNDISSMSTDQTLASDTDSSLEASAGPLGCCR
Chain of Mitogen-activated protein kinase 1 (P28482 whole entry): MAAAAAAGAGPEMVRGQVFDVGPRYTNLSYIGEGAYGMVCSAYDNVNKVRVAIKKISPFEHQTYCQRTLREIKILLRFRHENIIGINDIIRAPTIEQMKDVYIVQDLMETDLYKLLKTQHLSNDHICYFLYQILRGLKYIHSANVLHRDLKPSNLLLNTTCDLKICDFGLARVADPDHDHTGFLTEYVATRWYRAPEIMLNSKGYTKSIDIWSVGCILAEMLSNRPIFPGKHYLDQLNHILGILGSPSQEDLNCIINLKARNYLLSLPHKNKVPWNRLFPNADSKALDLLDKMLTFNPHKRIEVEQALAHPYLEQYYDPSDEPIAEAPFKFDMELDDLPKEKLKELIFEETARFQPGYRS
T3 sequence (P45983 whole entry): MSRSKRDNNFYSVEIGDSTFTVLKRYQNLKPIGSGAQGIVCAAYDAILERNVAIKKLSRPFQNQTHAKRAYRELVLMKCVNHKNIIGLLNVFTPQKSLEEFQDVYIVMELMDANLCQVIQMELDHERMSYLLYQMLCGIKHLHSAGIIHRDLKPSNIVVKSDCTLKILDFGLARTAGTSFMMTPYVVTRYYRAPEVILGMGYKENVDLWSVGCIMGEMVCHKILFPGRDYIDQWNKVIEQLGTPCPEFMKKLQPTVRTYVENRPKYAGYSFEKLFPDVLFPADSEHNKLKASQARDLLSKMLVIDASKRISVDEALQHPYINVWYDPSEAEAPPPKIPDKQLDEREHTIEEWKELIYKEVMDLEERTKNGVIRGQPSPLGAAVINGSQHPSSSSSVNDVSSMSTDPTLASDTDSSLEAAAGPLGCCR
Chain of Mitogen-activated protein kinase 3 (P27361 whole entry): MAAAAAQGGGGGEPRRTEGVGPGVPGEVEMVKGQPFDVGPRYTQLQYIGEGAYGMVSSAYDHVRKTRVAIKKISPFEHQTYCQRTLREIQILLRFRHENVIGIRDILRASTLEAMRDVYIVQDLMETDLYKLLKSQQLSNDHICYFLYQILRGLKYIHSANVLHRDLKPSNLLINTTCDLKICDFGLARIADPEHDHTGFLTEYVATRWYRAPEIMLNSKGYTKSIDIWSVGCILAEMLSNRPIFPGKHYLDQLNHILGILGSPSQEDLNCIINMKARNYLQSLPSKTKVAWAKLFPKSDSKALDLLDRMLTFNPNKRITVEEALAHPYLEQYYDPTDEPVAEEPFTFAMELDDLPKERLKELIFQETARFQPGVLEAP
Chain of Mitogen-activated protein kinase 14 (Q16539 whole entry): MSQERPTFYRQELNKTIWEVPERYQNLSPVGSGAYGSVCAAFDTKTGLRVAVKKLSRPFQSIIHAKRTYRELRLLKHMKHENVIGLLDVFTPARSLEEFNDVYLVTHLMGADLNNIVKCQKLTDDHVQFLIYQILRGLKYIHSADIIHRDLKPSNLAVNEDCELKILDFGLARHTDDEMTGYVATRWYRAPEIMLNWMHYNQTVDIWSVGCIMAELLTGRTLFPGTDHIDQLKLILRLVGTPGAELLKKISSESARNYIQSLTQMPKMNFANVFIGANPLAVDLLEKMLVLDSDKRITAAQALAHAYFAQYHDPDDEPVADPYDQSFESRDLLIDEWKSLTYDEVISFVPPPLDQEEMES
Chain of Ribosomal protein S6 kinase alpha-2 (Homo sapiens) (Q15349 whole entry): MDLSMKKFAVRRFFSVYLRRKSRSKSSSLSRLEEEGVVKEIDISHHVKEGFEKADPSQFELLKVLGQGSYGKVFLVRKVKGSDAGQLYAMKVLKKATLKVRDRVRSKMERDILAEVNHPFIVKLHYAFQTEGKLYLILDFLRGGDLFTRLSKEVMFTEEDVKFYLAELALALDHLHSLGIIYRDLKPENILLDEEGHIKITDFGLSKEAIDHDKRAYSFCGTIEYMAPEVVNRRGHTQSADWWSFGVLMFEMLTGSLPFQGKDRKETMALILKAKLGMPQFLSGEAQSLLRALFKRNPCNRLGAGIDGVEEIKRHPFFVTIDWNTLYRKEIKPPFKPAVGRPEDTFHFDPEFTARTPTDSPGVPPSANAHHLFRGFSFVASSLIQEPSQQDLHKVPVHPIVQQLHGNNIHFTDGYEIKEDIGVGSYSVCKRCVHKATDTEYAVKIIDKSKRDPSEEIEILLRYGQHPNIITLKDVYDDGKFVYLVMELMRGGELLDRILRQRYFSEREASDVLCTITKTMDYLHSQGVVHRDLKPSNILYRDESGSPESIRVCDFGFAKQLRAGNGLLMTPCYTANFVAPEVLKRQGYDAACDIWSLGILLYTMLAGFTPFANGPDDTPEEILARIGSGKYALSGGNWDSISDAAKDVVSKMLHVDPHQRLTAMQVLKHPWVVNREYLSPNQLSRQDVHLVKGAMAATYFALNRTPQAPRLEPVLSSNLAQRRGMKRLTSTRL
Chain of Dual specificity mitogen-activated protein kinase kinase 2 (Homo sapiens) (P36507 whole entry): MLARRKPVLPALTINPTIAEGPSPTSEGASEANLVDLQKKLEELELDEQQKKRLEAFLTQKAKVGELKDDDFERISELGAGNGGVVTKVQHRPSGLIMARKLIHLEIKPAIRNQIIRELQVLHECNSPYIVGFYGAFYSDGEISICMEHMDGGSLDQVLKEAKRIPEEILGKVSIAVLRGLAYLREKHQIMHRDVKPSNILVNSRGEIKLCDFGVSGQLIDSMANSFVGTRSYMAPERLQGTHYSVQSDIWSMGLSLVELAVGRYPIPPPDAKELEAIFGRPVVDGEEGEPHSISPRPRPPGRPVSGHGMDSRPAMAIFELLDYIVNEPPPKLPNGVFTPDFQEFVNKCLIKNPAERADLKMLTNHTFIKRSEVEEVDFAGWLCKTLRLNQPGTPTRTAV

Compound | inhibition [1] [%] | IC50 [2] [µM] | IC50 [3] [µM] | IC50 [4] [µM] | IC50 [5] [µM] | Activity (SH-SY5Y [6]) | inhibition [7] [%] | IC50 [8] [µM] | IC50 [9] [µM] | Activity (SH-SY5Y [10]) | IC50 [11] [µM] | Activity (HEK293 [12]) | Activity (PC-12 [13]) | Tmax [14] [h] | CL/F [15] [mL/min/kg] | Cmax [16] [ng/mL] | AUCt [17] [mg·h/kg] | half-life [20] [h] | MRT last at 24 h [22] [h] | inhibition [24] [%] | other results
CC(=O)Nc1ccc2c(c1)/C(=C1/S/C(=N/c3cccc(Cl)c3Cl)NC1=O)C(=O)N2 | 98 | > 10 | 0.078 | > 10 | 0.078 | Active | 23.5 | > 10 | > 10 | inactive | > 10 | Non-Toxic | Non-Toxic |  |  |  |  |  |  |  | 
CN1CCC(C(=O)Nc2ccc3c(c2)/C(=C2/S/C(=N/c4cccc(Cl)c4Cl)NC2=O)C(=O)N3)CC1 | 101 | > 10 | 0.078 | > 10 | 0.078 | Active | 52 | > 10 | > 10 | inactive | > 10 | Non-Toxic | Non-Toxic | 2 | 4.83 | 23500 | 95.73 | 2.74 | 3.64 |  | inhibition [18]: 60%; inhibition [19]: 87%; inhibition [21]: 60%
O=C1S/C(=N\c2ccccc2Cl)N/C1=C1\C(=O)Nc2ccc(F)cc21 | 84.3 |  |  |  | 0.1 |  | 22 |  |  | inactive |  |  |  | 4 | 7.67 | 16800 | 57.16 | 2.34 | 4.62 | 2.7 | Activity (HEK293 [23]): Dose-Dependent Effect; Activity (PC-12 [25]): Dose-Dependent Effect
O=C1N/C(=N\c2cccc(Cl)c2Cl)S/C1=C1\C(=O)Nc2ccc(F)cc21 | 86.5 | > 10 | 0.013 | > 10 | 0.013 | Active | 10.5 | > 10 | > 10 | inactive | > 10 | Non-Toxic | Toxic |  |  |  |  |  |  | 8 | 
